Assay results as given in patent US4374149A, “α-{[(Arylalkyl)amino]alkyl}-4-hydroxy-3-(lower-alkylsul finyl)benzenemethanols” (Sterling Drug Inc., priority 1978, dated 1983).
Where a name gives a salt, the structure may show the parent alone. Read-outs that look alike come from different tables or passages of the source.

Legend:
[1] = tested on: Ouabain-induced arrhythmia; assay: Conversion of ouabain-induced arrhythmia in dogs; type: in vivo, mongrel dogs; set-up: key: active (A); inactive (I)
Experimental: (§1) The test procedures were carried out as follows.
Na-pentobarbital supplements were given i.v. as needed.
Both parameters were printed out on a Grass polygraph.

β-adrenergic = β-adrenergic blocking activity, inhibition of isoproterenol-elicited heart rate increase in pentobarbitalized dog; type: in vivo; conditions: i.v.; for Dog β-blockade AED50 (approximate intravenous dose for 50% inhibition of isoproterenol-elicited heart rate increase): pentobarbitalized dog
Experimental: The β-adrenergic blocking activity was determined in the pentobarbitalized dog as judged by the ability of the test compound to inhibit the elevation in heart rate elicited by a 0.5 mcg./kg. i.v. injection of isoproterenol.
^e AED50 = approximate intravenous dose required to cause 50%

systolic blood pressure = assay: Antihypertensive activity, reduction in systolic blood pressure, single oral medication, unanesthetized spontaneous hypertensive rat; type: in vivo; conditions: for Actual reduction in blood pressure observed at the indicated dose / Antihypertensive activity SH Rat AHD40 (single oral dose required to induce a 40 mm. average reduction in systolic blood pressure): P.O.; for Antihypertensive activity SH Rat AHD40 (single oral dose required to induce a 40 mm. average reduction in systolic blood pressure): unanesthetized SH rat
Experimental: Antihypertensive activity was determined on the basis of the observed reduction in systolic blood pressure measured according to the method of H. Kersten et al., J. Lab. and Clin. Med. 32, 1090 (1947) following a single oral medication in the unanesthetized spontaneous hypertensive rat described by Okamato et al., Japan Circulation J. 27, 282 (1963).
^a AHD40 = single oral dose required to induce a 40 mm. average

Ba++-induced arrhythmia = assay: Conversion of Ba++-induced arrhythmia in rabbits; type: in vivo; set-up: key: active (A); inactive (I)
Experimental: as §1
Adult rabbits or either sex weighing between 1.7 and 2.3 kg. were anesthetized with 30 to 35 mg./kg. Na-pentobarbital i.v. via a marginal ear vein. Monoplar ECG pin electrodes were inserted for a lead II display on a Model 5 Grass Polygraph using standard electrocardiographic procedures. A 23 ga. hypodermic needle, attached via a polyethylene catheter to a 10 cc. syringe, was inserted into the same vein as was used for anesthesia. A BaCl2.2H2 O solution in saline was then infused at a constant volume of 0.2 cc/min. from a Harvard Apparatus Model 600 infusion pump. This infusion was not stopped until termination of the experiment. In some studies barium chloride in distilled water was used without detectable differences. The standard rate of BaCl2.2H2 O infusion was established at 0.3 mg./kg./min. (1.2×10^-6 M/kg./min.), and the concentration was adjusted appropriately in each case to accommodate the weight of the rabbit.
When the desired arrhythmia was established, the test compound was introduced as a water or saline solution into the marginal ear vein of the unused ear. The volume used was between 0.5 and 2.0 cc./kg. and was injected as a bolus over approximately 30 seconds. Deviations from standard vehicle, rate of injection and total volume administered were at the discretion of the operator. The standard initial dose of an unknown compound on the first rabbit was 5×10^-5 M/kg. In general, two to three rabbits were used to determine anti-arrhythmic activity and the dose range of activity; multiple doses were administered. Once activity and dose was indicated, two additional rabbits were employed to confirm anti-arrhythmic activity against a multifocal tachycardia.

hind limb vasculature = assay: Vasodilator activity, perfusion pressure in hind limb vasculature of anesthetized dog; type: in vivo; conditions: for ED50: Canis lupus familiaris, read-out: Vasodilator activity Dog-Leg Perfusion AED50 (approximate intraarterial dose for 50 reduction in perfusion pressure)
Description: (§2) Vasodilator activity was judged on the basis of observed reduction in perfusion pressure in the hind limb vasculature of the anesthetized dog determined according to the procedure described by Jandhyala et al., European J. Pharm. 17, 357 (1972), and also on the basis of percent reduction in perfusion pressure as measured in the isolated rabbit ear artery according to the method described by De LaLande et al., Aust. J. Exp. Biol. Med. Sci. 43, 639 (1965).
^c AED50 = approximate intraarterial dose required to cause a 50

[2] = tested on: isolated rabbit ear artery; assay: Vasodilator activity, perfusion pressure in isolated rabbit ear artery
Description: as §2
^d Vasodilation is expressed as the percentage reduction in perfusion

[3] = Acute intravenous and oral toxicity in mice; type: in vivo
Experimental: Acute intravenous and oral toxicity in mice was determined for the compound of Example 2G as follows: The compound was dissolved in distilled water and administered as the base at a volume of 10 ml./kg. for the i.v. ALD50 or 10-40 ml./kg. for the p.o. ALD50. The compound was administered in graded doses to groups of three mice each (Swiss-Webster strain males weighing 20±2 g.). Mortality occurred within 1 minute after i.v. administration and within 10 minutes after oral administration. […] The i.v. ALD50 was 75 mg./kg. and the p.o. ALD50 was 1500 mg./kg.

blood pressure = assay: Antihypertensive activity, sustained lowering of blood pressure, repeated oral medication, unanesthetized trained renal hypertensive dog; type: in vivo; conditions: tid.; for Actual percentage reduction in blood pressure observed at the indicated dose: 0.125 mg./kg.
Description: Antihypertensive activity was also judged on the basis of sustained reduction of blood pressure observed in the unanesthetized trained renal hypertensive dog following repeated oral medication according to the procedure described by Lape et al., Arch.
^b MED10 = minimum repeated oral daily dose required to effect a

[4] = intraarterial, anesthetized dog hind limb

Structure (SMILES)	Dog β-blockade AED50 (approximate intravenous dose for 50% inhibition of isoproterenol-elicited heart rate increase) (β-adrenergic)	Antihypertensive activity SH Rat AHD40 (single oral dose required to induce a 40 mm. average reduction in systolic blood pressure) (systolic blood pressure)	Renal Hypertensive Dog MED10 (minimum repeated oral daily dose for sustained lowering of blood pressure of 10% or greater) (blood pressure)	Rabbit Ear Artery vasodilation (percentage reduction in perfusion pressure from control level) ([2]; 5 × 10^-5 M, 50 µM)	ED50 (hind limb vasculature; [4])	Conversion of Ba++-induced Arrhythmia (Ba++-induced arrhythmia; 2.5 × 10^-6 M/kg.)	Actual percentage reduction in blood pressure observed at the indicated dose (blood pressure)	also measured
CC(CCc1ccc(O)cc1)NCCc1ccc(O)c([S+](C)[O-])c1 (single isomer, unassigned) [Example 30E, 4-<2-{[3-(4-hydroxy-phenyl)-1-mehylpropyl]amino}ethyl>-2-(methylsulfinyl)phenol hydrochloride]	ca. 0.50 mg./kg.	> 50 mg/kg						Conversion of Ouabain-induced Arrhythmia ([1]; 1 × 10^-5 M/kg.): A; Actual reduction in blood pressure observed at the indicated dose (systolic blood pressure; 50 mg./kg.): -3 mm. Hg; Conversion of Ba++-induced Arrhythmia (Ba++-induced arrhythmia; 2 × 10^-5 M/kg.): A
COc1ccc(CCC(C)NCC(O)c2ccc(O)c([S+](C)[O-])c2)cc1 (stereo not drawn) [Example 2G, 4-hydroxy-α-<{[3-(4-methoxyphenyl)-1-methylpropyl]amino}methyl>-3-(methylsulfinyl)benzenemethanol acetate salt]			0.0316 mg/kg					Vasodilator activity Dog-Leg Perfusion AED50 (approximate intraarterial dose for 50 reduction in perfusion pressure) (hind limb vasculature; intraarterial, anesthetized dog hind limb, acetate salt): 0.5 mg/kg; Rabbit Ear Artery vasodilation (percentage reduction in perfusion pressure from control level) ([2]; 5 × 10^-5 M, 50 µM, acetate salt): 50%; Time of mortality after i.v. administration ([3]; i.v.): ≤ 1 min; Symptoms of acute intoxication for the fatalities ([3]; mouse, in vivo): atoxia, loss of righting reflux, clonic convulsions and dyspnea followed by respiratory arrest; Untoward symptoms in survivors ([3]; mouse, in vivo): no untoward symptoms observed for up to 7 days for the survivors; LD50 ([3]; mouse, in vivo, iv): 75 mg/kg; LD50 ([3]; mouse, in vivo, po): 1500 mg/kg; Time of mortality after oral administration ([3]; oral): ≤ 10 min; Dog β-blockade AED50 (approximate intravenous dose for 50% inhibition of isoproterenol-elicited heart rate increase) (β-adrenergic; acetate salt): 0.025 mg/kg; Antihypertensive activity SH Rat AHD40 (single oral dose required to induce a 40 mm. average reduction in systolic blood pressure) (systolic blood pressure; acetate salt): 2.0 mg/kg; Antihypertensive activity (in words) (systolic blood pressure; standard pharmacological tests on representative examples): high antihypertensive activity
COc1ccc(CC(C)NCC(O)c2ccc(O)c([S+](C)[O-])c2)cc1OC (stereo not drawn) [Example 16C, α-<{[2-(3,4-dimethoxyphenyl)-1-methylethyl]amino}methyl>-4-hydroxy-3-(methylsulfinyl)benzenemethanol acetate salt]	> 0.1 mg/kg	15.0 mg/kg		75%				ED50 (hind limb vasculature): 0.5 mg/kg; Actual percentage inhibition of heart rate increase above control level observed at the indicated dose (β-adrenergic; 0.1 mg./kg.): 38%
CC(=O)O.C[S+]([O-])c1cc(C(O)CNC(C)(C)CCc2ccccc2)ccc1O (stereo not drawn) [Example 17C, α-{[(1,1-dimethyl-3-phenylpropyl)amino]methyl}-4-hydroxy-3-(methylsulfinyl)benzenemethanol acetate salt]	0.05 mg/kg	> 20.0 mg/kg		50%	0.5 mg/kg	A		Conversion of Ouabain-induced Arrhythmia ([1]; 5 × 10^-6 M/kg.): A; Actual reduction in blood pressure observed at the indicated dose (systolic blood pressure; 20 mg./kg.): -37 mm. Hg
COc1ccc(CCC(C)(C)NCC(O)c2ccc(O)c([S+](C)[O-])c2)cc1 (stereo not drawn) [Example 18D, α-<{[1,1-dimethyl-3-(4-methoxyphenyl)propyl]amino}methyl>-4-hydroxy-3-(methylsulfinyl)benzenemethanol acetate salt]	< 1.0 mg/kg	> 20.0 mg/kg	> 0.125 mg/kg		0.5 mg/kg		0%	Rabbit Ear Artery vasodilation (percentage reduction in perfusion pressure from control level) ([2]; 1 × 10^-4 M, 100 µM): 42%; Actual percentage inhibition of heart rate increase above control level observed at the indicated dose (β-adrenergic; 1.0 mg./kg.): 100%; Actual reduction in blood pressure observed at the indicated dose (systolic blood pressure; 20 mg./kg.): -26 mm. Hg; Conversion of Ba++-induced Arrhythmia (Ba++-induced arrhythmia; 5 × 10^-6 M/kg.): A
CC(=O)O.CC(CCc1ccccc1)NCC(O)c1ccc(O)c([S+](C)[O-])c1 (stereo not drawn) [Example 19C, 4-hydroxy-α-{[(1-methyl-3-phenylpropyl)amino]methyl}-3-(methylsulfinyl)benzenemethanol acetate salt]	< 0.025 mg/kg	20.0 mg/kg	> 0.125 mg/kg	50%	0.5 mg/kg	A	0%	Conversion of Ouabain-induced Arrhythmia ([1]; 5 × 10^-5 M/kg.): A; Actual percentage inhibition of heart rate increase above control level observed at the indicated dose (β-adrenergic; 0.025 mg./kg.): 67%
COc1ccc(CCCNCC(O)c2ccc(O)c([S+](C)[O-])c2)cc1 (stereo not drawn) [Example 20C, 4-hydroxy-α-<{[3-(4-methoxyphenyl)propyl]amino}methyl>-3-(methylsulfinyl)benzenemethanol acetate salt]	< 0.1 mg/kg	7.0 mg/kg	> 0.125 mg/kg		0.5 mg/kg		0%	Rabbit Ear Artery vasodilation (in words) ([2]; concentration not given): constrictor; Actual percentage inhibition of heart rate increase above control level observed at the indicated dose (β-adrenergic; 0.1 mg./kg.): 67%
COc1ccc(CCC(C)(C)NCCc2ccc(O)c([S+](C)[O-])c2)cc1 (stereo not drawn) [Example 34C, 4-<2-{[3-(4-methoxyphenyl)-1,1-dimethylpropyl]amino}ethyl>-2-(methylsulfinyl)phenol hydrochloride]	> 1.0 mg/kg	> 50 mg/kg				A		Conversion of Ouabain-induced Arrhythmia ([1]; 2 × 10^-5 M/kg.): A; Actual percentage inhibition of heart rate increase above control level observed at the indicated dose (β-adrenergic; 1.0 mg./kg.): 40%; Actual reduction in blood pressure observed at the indicated dose (systolic blood pressure; 50 mg./kg.): -8 mm. Hg
